pKi: −log10 of the molar value.
Columns and labels:
[1] = molecular target: T1, MOPC315 IgA Fab fragment, thiolated Fab labeled with bromoketone 4 (thiol tethered at tyrosine 34L) (Mus musculus, UniProt P01729+P01822); assay: Ester cleavage assay; assay type: biochemical
T1 construct: Fab fragment, generated by treating the reduced and alkylated IgA with papain; made in house
Experimental: (§1) Cleavage of DNP coumarin esters 14 and 15 by the thiol-containing antibodies was assayed in the presence and absence of 0.1 μM NaCl, 50 mM sodium phosphate, pH 7.0, with 24 μM dithiothreitol at 10° C. The release of free coumarin was quantitated fluorometrically, exciting at 355 nm and measuring emission at 455 nm. The S-thiopyridyl Fab was first dialyzed against assay buffer, 30 min. prior to the assays, an aliquot of the thiopyridyl Fab (0.15 mg in 0.19 ml) was reduced with 3.8 mM dithiothreitol at 20° C. For each assay, reduced, thiolated Fab (15 μg in 18.8 μl) was diluted with assay buffer (2.95 ml) so that the net concentrations of thiolated Fab and of dithiothreitol were 0.1 μM and 24 μM, respectively. After equilibrating, the substrate was added (30 μl of a stock solution in acetonitrile) and the solution mixed for 10 sec. before monitoring fluorescence change. Antibody rates were corrected by subtracting the rate of cleavage in the absence of Fab.
(§2) The reaction kinetics are consistent with the formation of a Michaelis complex (FIG. 6). […] Neither the uncleaved affinity-labeled antibody nor the iodoacetamide-alkylated antibody accelerated the rate of the thiolysis reaction above the background rate. The stoichiometry of product release corresponded to 1.0 coumarin to 1.0 Fab-SH. […]

[2] = molecular target: IgA MOPC315, underivatized; assay: Association of DNP ligands with the underivatized antibody; assay type: binding; settings: underivatized MOPC 315
Experimental: The following studies were carried out on the IgA MOPC315, which binds substituted 2,4-dinitrophenyl (DNP) ligands with association constants ranging from 5×10^4 to 10^6 M^-1 (Haselkorn et al. (1974) Biochemistry 13:2210). Although a three-dimensional structure is not available, the antibody combining site has been characterized by spectroscopic methods (UV, fluorometry, NMR), chemical modification, and amino acid sequencing of the variable region. Moreover, earlier affinity-labeling studies with reagents of varying structures (Givol and Wilcheck (1977) Meth. Enzy. 46:479; Givol et al. (1971) Biochemistry 10:3461; and Strausbauch et al. (1971) Biochemistry 10:4342) defined a number of reactive amino acid side chains in the vicinity of the combining site.
(§3) Fluorescence quenching experiments were carried out at 10° C. using 492 nm for excitation and measuring emission at 521 nm. The fluorescein-Fab adduct was diluted wi.:h assay buffer (50 mM NaCl. 50 mM sodium phosphate, pH 7.0) to 0.10 μM. Aliquots of 2,4-DNP-glycinewere added and, after mixing, the fluorescence observed. The association constant of DNP-glycine to the fluorescein-Fab adduct was determined to be 3.0×10^5 M^-1, almost identical to the KA of DNP-glycine to underivatized MOPC 315, 2.0×10^5 M^-1.

[3] = molecular target: T2, MOPC315 fluorescein-Fab adduct (S-thiopyridyl Fab labeled with 2, derivatized with N-fluoresceinthioureido-2-mercaptoethylamine) (Mus musculus, UniProt P01729+P01822); assay: Fluorescence quenching binding assay; settings: 0.10 μM adduct, 50 mM NaCl, 50 mM sodium phosphate, pH 7.0, 10° C.; read-out: association constant (converted)
T2 construct: Fab fragment, generated by treating the reduced and alkylated IgA with papain; made in house
T2 sequence (P01822 19-137): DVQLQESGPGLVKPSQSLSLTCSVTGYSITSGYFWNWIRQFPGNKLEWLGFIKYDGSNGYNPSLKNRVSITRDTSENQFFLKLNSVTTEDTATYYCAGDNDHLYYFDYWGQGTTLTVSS
T2 sequence (P01729 20-129): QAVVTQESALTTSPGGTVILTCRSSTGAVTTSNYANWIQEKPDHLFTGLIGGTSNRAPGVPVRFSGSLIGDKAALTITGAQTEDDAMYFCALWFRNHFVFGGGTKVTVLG
T2 sequence (P01878 1-100 partner limits assumed): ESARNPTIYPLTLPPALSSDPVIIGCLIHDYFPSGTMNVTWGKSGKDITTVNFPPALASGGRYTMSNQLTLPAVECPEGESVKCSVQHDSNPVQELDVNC
T2 sequence (P01844 whole entry partner, the tested form may be a part): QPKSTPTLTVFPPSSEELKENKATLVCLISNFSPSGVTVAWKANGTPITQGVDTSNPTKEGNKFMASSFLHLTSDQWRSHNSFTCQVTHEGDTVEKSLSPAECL
Experimental: FIG. 7 illustrates the results of a fluorescence quenching binding assay for DNP-glycine with fluorescein-Fab adduct (.quadrature.) versus control with fluorescein plus underivatized Fab ( ). Fluorescence quenching experiments were carried at 10° C. using 492 nm for excitation and measuring emission at 521 nm. The fluorescein-Fab adduct was diluted with assay buffer (above) to 0.10 μM. Aliquots of 2,4-DNP-glycine were added and, after mixing, the fluorescence observed. Free N-fluoresceinthioureido-2-mercapthoethylamine and underivatized Fab, each at 0.10 μM, were treated in a similar experiment.
as §3

[4] = molecular target: T3, MOPC315 IgA Fab fragment, thiolated Fab labeled with 2 (Fab-SH, thiol tethered at residue 52H of the heavy chain) (Mus musculus, UniProt P01729+P01822); assay: Ester cleavage (thiolysis) assay, fluorometric release of coumarin; assay type: biochemical
T3 construct: Fab fragment, generated by treating the reduced and alkylated IgA with papain; made in house
T3 sequence (P01822 19-137): as the sequence (P01822 19-137) above
T3 sequence (P01729 20-129): as the sequence (P01729 20-129) above
T3 sequence (P01878 1-100 partner limits assumed): as the sequence (P01878 1-100 partner limits assumed) above
T3 sequence (P01844 whole entry partner, the tested form may be a part): as the sequence (P01844 whole entry partner, the tested form may be a part) above
Experimental: as §1, §2

MOPC315 IgA Fab fragment = molecular target: T4, MOPC315 IgA Fab fragment (Mus musculus, UniProt P01729+P01822+P01844+P01878); assay: Affinity labeling of Fab (incorporation of cleavable affinity labels); assay type: binding; settings: for % Fab labeled (without DNP-glycine) / label incorporated: Fab 10 μM; for % Fab labeled (without DNP-glycine): 1.5 equivalents aldehyde plus NaCNBH3, pH 7.0, 37° C., 20 hours, or 1.3 equivalents α-bromoketone, pH 9.0, 37° C., 16 hours; for % Fab labeled (with DNP-glycine): as without, in the presence of 10 mM competitive inhibitor DNP-glycine; for label incorporated: 1.5 or 1.3 equivalents of label, 37° C.; for non-specific labeling: in the presence of 10 mM DNP-glycine
T4 construct: Fab fragment, generated by treating the reduced and alkylated IgA with papain; made in house
T4 sequence (P01822+P01878 fused): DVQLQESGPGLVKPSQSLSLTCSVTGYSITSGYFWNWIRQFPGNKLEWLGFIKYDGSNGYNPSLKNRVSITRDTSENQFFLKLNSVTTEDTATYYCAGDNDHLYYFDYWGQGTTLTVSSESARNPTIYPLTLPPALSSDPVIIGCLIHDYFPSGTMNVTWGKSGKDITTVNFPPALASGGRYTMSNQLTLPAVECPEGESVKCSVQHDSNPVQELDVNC
T4 sequence (P01729+P01844 fused): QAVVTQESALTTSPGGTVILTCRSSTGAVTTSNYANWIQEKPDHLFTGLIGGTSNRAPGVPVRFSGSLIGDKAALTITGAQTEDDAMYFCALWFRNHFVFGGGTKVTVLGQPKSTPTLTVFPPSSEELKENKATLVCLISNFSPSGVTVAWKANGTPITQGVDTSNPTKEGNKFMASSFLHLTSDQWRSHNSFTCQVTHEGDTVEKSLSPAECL
Experimental: The strategy for introducing a thiol into the binding site of MOPC315 is outlined in FIG. 3. These steps were carried out with the Fab fragment, generated by treating the reduced and alkylated IgA with papain followed by affinity chromatography on DNP-coupled Sepharose 4B (Goetzl (1970) Biochemistry 9:1267). The Fab fragment (at 10 μM) was treated with either 1.5 equivalents of aldehydes 1 or 2 for one hour followed by 7.5 equivalents of NaCNBH3, in 0.2M sodium phosphate; pH 7.0, at 37° C. for 20 hours, or with 1.3 equivalents of α-bromoketones 3, 4, or 5 in 0.1M sodium bicarbonate, pH 9.0; at 37° C. for 16 hours. In both cases, the labeled Fab was purified by chromatography on Sephadex G-50 in 0.1M sodium phosphate, pH 7.3, and, after lyophilization, subsequent affinity chromatography on DNP-coupled Sepharose 4B (Goetzl, supra.) to remove unlabeled or non-specifically labeled Fab. The extent of derivatization was quantitated spectrophotometrically (for labels 1 and 2, λmax =360 nm, , ε=12,800 M^-1 cm^-1) and additionally, for labels 1 and 2, by incorporation of tritium from NaCNB^3 H3 (using 12 mCi/millimole NaCNB^3 H3). […] In both cases, less than 10% non-specific labeling occurred in the presence of 10 mM of the competitive inhibitor DNP-glycine.

T1 sequence (P01822 19-137): as the sequence (P01822 19-137) above
T1 sequence (P01729 20-129): as the sequence (P01729 20-129) above
T1 sequence (P01878 1-100 partner limits assumed): as the sequence (P01878 1-100 partner limits assumed) above
T1 sequence (P01844 whole entry partner, the tested form may be a part): as the sequence (P01844 whole entry partner, the tested form may be a part) above

SMILES	% Fab labeled (without DNP-glycine) (MOPC315 IgA Fab fragment)	% Fab labeled (with DNP-glycine) (MOPC315 IgA Fab fragment)	other results
CC(=O)Oc1ccc([N+](=O)[O-])cc1[N+](=O)[O-] [DNP-acetate]			hydrolysis of ester by thiolated Fab [1]: did not hydrolyze
O=C(O)CNc1ccc([N+](=O)[O-])cc1[N+](=O)[O-] [DNP-glycine]			KA [2]: 200000 M⁻¹; Kd [3]: 3.33 µM; pKi [4]: 5.10
O=CCCSSCCNc1ccc([N+](=O)[O-])cc1[N+](=O)[O-] [compound 1, (N-2,4-Dinitrophenyl)-2-aminoethyl 3-oxopropyl disulfide]	22%	5%	
O=CCCCSSCCNc1ccc([N+](=O)[O-])cc1[N+](=O)[O-] [compound 2]	95%	10%	label incorporated (MOPC315 IgA Fab fragment): over 90%; non-specific labeling (MOPC315 IgA Fab fragment): less than 10%
O=C(CBr)CCSc1ccc([N+](=O)[O-])cc1[N+](=O)[O-] [compound 3, 1-Bromo-2-oxo-4-(S-DNP)-mercaptobutane]	0%	0%	
O=C(CBr)CCCSc1ccc([N+](=O)[O-])cc1[N+](=O)[O-] [compound 4, 1-Bromo-2-oxo-5-(S-DNP)-mercaptopentane]	85%	0%	label incorporated (MOPC315 IgA Fab fragment): over 90%; non-specific labeling (MOPC315 IgA Fab fragment): less than 10%
O=C(CBr)CCCCSc1ccc([N+](=O)[O-])cc1[N+](=O)[O-] [compound 5, 1-Bromo-2=oxo-6-(S-DNP)-mercaptohexane]	15%	0%	
O=C(CCNc1ccc([N+](=O)[O-])cc1[N+](=O)[O-])Oc1ccc2ccc(=O)oc2c1 [ester 14, (N-DNP)-3-Aminopropanoic acid 7-hydroxycoumarin ester]			acceleration of cleavage, factor over the cleavage reaction in equimolar dithiothreitol ([4]; pH 7.0, 10° C.): 6×10^4

Reference: patent US5162218A, “Conjugated polypeptides and methods for their preparation” (The Regents of the University of California, priority 1991, dated 1992)
